Reference: patent US20190231748A1, “COMPOSITION FOR VAGINA AND ANTIMICROBIAL AGENT COMBINATION FOR USE IN PREPARING COMPOSITION FOR VAGINA” (Shenzhen Eulikan Biotechnology Co., Ltd., priority 2016, published 2019)

Tests used:
[1] = test system: three strains of Staphylococcus aureus isolated from the vaginal secretion of patients with vaginitis; assay: Growth in enrichment broth (turbidity after 24 hours), clinical strains; format: cell-based
From the text: a. Experimental strains, three strains of Escherichia coli and three strains of Staphylococcus aureus, which were all isolated from the vaginal secretion of patients with vaginitis.
b. Enrichment broth, which contained 1 percent of yeast extract powder, 9 percent of sucrose, 0.025 percent of manganese sulfate (MnSO4.4H2O), 0.058 percent of magnesium sulfate (MgSO4.7H2O), and 0.9 percent of lactic acid, the pH value of the broth was adjusted to 4.8, and the enrichment broth was sterilized for later use;
(2). Experimental groups: the requirements for aseptic operation technique were strictly followed to prepare the sterile test tubes:
a. sodium benzoate group: each test tube contained 5 milliliters of enrichment broth, and was added in 0.05 percent (weight/volume) sodium benzoate;
b. 2-phenylethanol group: each test tube contained 5 milliliters of enrichment broth, and was added in 0.05 percent (weight/volume) of 2-phenylethanol;
c. sodium propionate group: each test tube contained 5 milliliters of enrichment broth, and was added in 0.25 percent (weight/volume) of sodium propionate;
d. “a group of the combinations of sodium benzoate and sodium propionate”: each test tube contained 5 milliliters of enrichment broth, and was added in 0.05 percent (weight/volume) of sodium benzoate and 0.25 percent (weight/volume) of sodium propionate;
e. “a group of the combinations of sodium benzoate and 2-phenylethanol”: each test tube contained 5 milliliters of enrichment broth, and was added in 0.05 percent (weight/volume) of sodium benzoate and 0.05 percent (weight/volume) of 2-phenylethanol;
f. “a group of the combinations of sodium propionate and 2-phenylethanol”: each test tube contained 5 milliliters of enrichment broth, and was added in 0.25 percent (weight/volume) of sodium propionate and 0.05 percent (weight/volume) of 2-phenylethanol;
g. “a group of the combinations of sodium benzoate, sodium propionate and 2-phenylethanol”: each test tube contained 5 milliliters of enrichment broth, and was added in 0.05 percent (weight/volume) of sodium benzoate, 0.25 percent (weight/volume) of sodium propionate, and 0.05 percent (weight/volume) of 2-phenylethanol;
h. positive control: one tube that contained 5 milliliters of enrichment broth without adding in any of the 2-phenylethanol, sodium benzoate, and sodium propionate, but inoculated the suspension of Escherichia coli or Staphylococcus aureus.
i. negative control: one tube that contained 5 milliliters of enrichment broth without adding in any of the 2-phenylethanol, sodium benzoate, and sodium propionate, and not inoculated the suspension of Escherichia coli or Staphylococcus aureus.
The requirements for aseptic operation technique were strictly followed to prepare the bacterial suspensions. The colonies of Escherichia coli and Staphylococcus aureus were diluted with physiological saline respectively to prepare bacterial suspension. The turbidities of the Escherichia coli suspension and the Staphylococcus aureus suspension were adjusted to 0.5 MCF (about 10^8 CFU/ml) by a turbidimeter. 1 milliliter of the 0.5 MCF bacterial suspensions were added into 9 milliliters of the enrichment broth respectively, so each bacterial solution was diluted for ten times to contain 10^7 CFU/ml of bacterial organisms.
The requirements for aseptic operation technique were strictly followed to take 100 microliters of the prepared bacterial suspensions respectively, and to add the bacterial suspensions into the aforesaid test tubes from a to h as well as positive control tube. No bacterial suspension was added into the negative control tube i.
The above tubes were cultured in a biochemical incubator at 37° C. for 24 hours, then turbidity changes of the test tube solutions were observed and recorded.
Remark: “+” means the growth of bacteria; “−” means no growth of bacteria.

[2] = test system: nine strains of Candida albicans; assay: Growth of Candida in enrichment broth after 24 hours, clinical strains; format: cell-based; settings: agent alone, broth pH 4.5, 37° C. 24 hours
From the text: b. Enrichment broth: which contained 1 percent of yeast extract powder, 9 percent of sucrose, 0.025 percent of manganese sulfate (MnSO4.4H2O), 0.058 percent of magnesium sulfate (MgSO4.7H2O), and 0.9 percent of lactic acid, the pH value of the broth was adjusted to 4.5, and the enrichment broth was sterilized for later use;
(2) Experimental groups: the requirements of aseptic operation technique were strictly followed so to prepare the sterile test tubes;
a. sodium benzoate group: each test tube contained 5 milliliters enrichment broth, and was added in 0.025 percent (weight/volume) of sodium benzoate;
b. 2-phenylethanol group: each test tube contained 5 milliliters enrichment broth, and was added in 0.050 percent (weight/volume) of 2-phenylethanol;
c. sodium propionate group: each test tube contained 5 milliliters enrichment broth, and was added in 0.125 percent (weight/volume) of sodium propionate;
d. “a group of the combinations of sodium benzoate and sodium propionate”: each test tube contained 5 milliliters enrichment broth, and was added in 0.025 percent (weight/volume) of sodium benzoate and 0.125 percent (weight/volume) of sodium propionate;
e. “a group of the combinations of sodium benzoate and 2-phenylethanol”: each test tube contained 5 milliliters enrichment broth, and was added in 0.025 percent (weight/volume) of sodium benzoate and 0.050 percent (weight/volume) of 2-phenylethanol;
f. “a group of the combinations of sodium propionate and 2-phenylethanol”: each test tube contained 5 milliliters enrichment broth, and was added in 0.125 percent (weight/volume) of sodium propionate and 0.050 percent (weight/volume) of 2-phenylethanol;
g. “a group of the combinations of sodium benzoate, sodium propionate and 2-phenylethanol”: each test tube contained 5 milliliters enrichment broth, and was added in 0.025 percent (weight/volume) of sodium benzoate, 0.125 percent (weight/volume) of sodium propionate and 0.050 percent (weight/volume) of 2-phenylethanol;
h. positive control: the control tube of enrichment broth without adding in 2-phenylethanol, sodium benzoate, and sodium propionate; but inoculated the suspension of Candida albicans;
i. negative control: the control tube of enrichment broth without adding in 2-phenylethanol, sodium benzoate, and sodium propionate; and without inoculating Candida albicans;
The requirements for aseptic operation technique were strictly followed to prepare the suspension of organism. The colonies of each strain of Candida albicans organism were diluted with physiological saline respectively. The turbidities of the suspensions of Candida albicans organism were adjusted to 0.5 MCF (about 10^8 CFU/ml) by a turbidimeter. 1 milliliter of the 0.5 MCF organism suspension was added into 9 milliliters of enrichment broth. Each suspension was diluted for ten times to contain 10^7 CFU/ml of organisms.
the requirements for aseptic technique were strictly followed to take 100 microliters of the prepared organism suspension respectively and to add the suspension into the test tubes from a to h as well as the positive control tube. No organism suspension was added into the negative control tube i.
The above tubes were cultured in a biochemical incubator at 37° C. for 24 hours. Then the growth of Candida in each tube was observed and recorded.
Remark: “+” means the growth of organisms; “−” means no growth of organisms.

SMILES | could inhibit the growth of Staphylococcus aureus (agent alone, words) ([1]; 0.05 percent (weight/volume) in enrichment broth pH 4.8, 37° C. 24 hours) | number of the nine Candida albicans strains that grew ([2]; 0.050 percent (weight/volume)) | could inhibit the growth of Staphylococcus aureus (agent alone, words) ([1]; 0.25 percent (weight/volume) in enrichment broth pH 4.8, 37° C. 24 hours) | number of the nine Candida albicans strains that grew ([2]; 0.125 percent (weight/volume))
OCCc1ccccc1 [2-phenylethanol] | no one of the three antimicrobial agents | seven |  | 
CCC(=O)[O-].[Na+] [sodium propionate] |  |  | no one of the three antimicrobial agents | six
